From patent publication US4654373A, “Pharmaceutical formulations containing coenzyme Q10 suitable for topic administration” (Italfarmaco S.A., priority 1982, dated 1987)

How the values were obtained:
[1] = tested on: Wistar rats; experiment: Acute toxicity by topical cutaneous route in rats; type: in vivo, Wistar rat; details: 5 mg up to 20 mg per cm^2 of depilated (intact or abraded) skin, immediate and eight days after treatment
Method: To assess the toxicity of the product administered by the topical cutaneous route, two groups of forty Wistar rats of both sexes in the same number, carefully depilated on the back, were used.
To a group of these rats, the depilated skin was also abraded. On the cutis so prepared after two days the compositions of the invention containing increasing amounts of Coenzyme Q10 in the ratio of 5 mg up to 20 mg for each square centimeter of depilated skin, were spread for each group of ten rats.

[2] = tested on: New Zealand rabbits; experiment: Acute toxicity by topical cutaneous route in rabbits; type: in vivo, New Zealand rabbit; details: 5 to 20 mg per cm^2 of depilated (intact or abraded) back, immediately and after 8 days
Method: Similar experiences were carried out also on a group of 8 New Zealand rabbits of both sexes, having the back depilated. The cutis of 4 of these animals was also abraded.
Two days after the depilation, the compositions of the invention, corresponding to doses of Coenzyme Q10 ranging from 5 to 20 mg per square centimeter of area of the depilated back, were spread on the cutis of the animals so prepared.

[3] = tested on: male Wistar rats; experiment: Chronic toxicity, topical, 60 days, rats; details: 50 mg/kg/die, daily for 60 days
Method: (§1) These tests were carried out by administering locally on the skin of two groups of 30 male Wistar rats and of 6 male New Zealand rabbits with the skin epilated, the skin of one group being epilated and abraded, a pharmaceutical composition for a total amount of 50 mg/kg/die of Coenzyme Q10.
(§2) The administration went on daily for 60 consecutive days.
(§3) Before the start of the treatment and at the end all the animals were subjected to a series of controls and examinations regarding the ponderal increase, red-cells and white cells count, haemoglobin concentration in the blood, glycemia, azotemia, transaminases and blood total proteins. The urinary elimination was also tested. At the end of treatment all the animals were killed and accurate anatomopathological and histopathological examinations were performed on each animal with particular regard to the zones of treated skin.

[4] = tested on: male New Zealand rabbits; experiment: Chronic toxicity, topical, 60 days, rabbits; details: 50 mg/kg/die, daily for 60 days
Method: as §1, §2, §3

[5] = tested on: pregnant Wistar rats; experiment: Theratogenesis test, topical; details: topical on epilated and abraded skin, 50 mg/kg/die, seventh to fifteenth day of pregnancy
Method: In order to evaluate if the administration by the topical route of Coenzyme Q10 could interfere on the normal ebryonal or phaetal development, a pharmaceutical composition of the invention corresponding to an amount of Coenzyme Q10 of 50 mg/kg/die was spread on the epilated and abraded skin of ten pregnant Wistar rats.
The administration was carried out from the seventh to the fifteenth day of pregnancy.
The main internal organs were also subjected to observation.

[6] = Cutaneous absorption of Coenzyme Q10 in the rat; type: in vivo, male Wistar rat; details: topical, 5 mg/kg/cm^2 of skin
Method: In order to evaluate the cutaneous absorption of Coenzyme Q10 after its application on the skin a group of male Wistar rats of the average weight of 280 g was used. The animals were epilated on the back and a composition corresponding to a dose of Coenzyme Q10 of 5 mg/kg/cm^2 of skin was applied on the epilated back.
Samples of skin were then removed both from treated and untreated animals at intervals of 1, 3, 6 and 24 hours from treatment. The skin, together with the removed subcutaneous tissue, was homogenized and kept at -20° C. till the moment of analysis.
Samples of 5 g each of tissue were saponified in the presence of pyrogallole.
The fraction containing Coenzyme Q10 and other neutral fats was extracted with hydrocarbon solvents and purified chromatographically on column.
The spectrophotometric measurement was performed according to the method described by Linn B. O., Page A. C., Wong E. L., Gale, P. H., Shunk C. H., Folkers K. [J. Am. Chem. Soc., 81, 4007 (1959)].

[7] = Cutaneous absorption in volunteers; type: in vivo, human (health volunteers); details: human, skin, topical or ocular, 1 mg/cm^2, corneous layer removed, read-out: mean percent absorption
Method: For these tests the method described by Tauber and al. [Arzneimittel Forschung, 26, N7b, 1492 (1976)].
On 4 health volunteers, areas of about 30 cm^2 of skin whose corneous layer had been removed, were spread with a composition corresponding to 1 mg/cm^2 of Coenzyme Q10.
Immediately after the application and after 24 hours from the application on the skin, the composition not absorbed was removed by cotton-wool and the cotton-wool used for the removal was extracted with chloroform/ethanol.
After saponification in presence of pyrogallole the fraction containing Coenzyme Q10 and other neutral fact was extracted with hydrocarbon solvents and purified chromatographically on column.
The spectrophotometric measure was carried out according to the method described by Linn and al. [J. Am. Chem. Soc., 81, 4007 (1959)].

[8] = Distribution after oral administration (HPLC); type: in vivo, rat; details: oral 50 mg/kg; for concentration at 0.5 h / concentration at 1 h / concentration at 6 h: rat; for concentration at 0.5 h: 30 min.; for concentration at 1 h: 60 min.
Method: Rats were treated with 50 mg/kg of Coenzyme Q10 by oral route and the concentration of the active principle was determined by using the HPLC method in several organs after 30 min., 60 min. and 6 hours.

[9] = Distribution after parenteral (intramuscular) administration (HPLC); type: in vivo, rat; details: intramuscular 20 mg/kg; for concentration at 0.5 h / concentration at 1 h / concentration at 6 h: rat, im; for concentration at 0.5 h: 30 min.; for concentration at 1 h: 60 min.
Method: Rats were treated with 20 mg/kg of Coenzyme Q10 by intramuscular injection and the concentration of the active compound was determined by HPLC after 30 min., 60 min. and 6 hours.

[10] = Cutaneous concentration after topical administration (HPLC); type: in vivo, rat; details: topical 2 mg/cm^2, vegetal oils as solvents and excipients
Method: Rats were cutaneously treated with 2 mg/cm^2 of skin of Coenzyme Q10 and the concentration was measured by the HPLC method. The results are listed in Table 3 for two different vehicles.

[11] = tested on: holes in rabbits' ears; experiment: Tissular regeneration and healing of holes in rabbits' ears; type: in vivo, New Zealand rabbit; details: topical composition, 5 mg/cc, versus not treated rabbits
[12] = tested on: dental caries; experiment: Dental caries in hamster fed by cariogenic diet; type: in vivo; details: 25 mg/kg on the dental gingival region
[13] = tested on: experimental burns; experiment: Experimental burn in the rat; type: in vivo, male Wistar rat
[14] = tested on: carrageenin oedema in the rat paw; experiment: Carrageenin oedema test in rats; type: in vivo, male rat; details: topical, both formulations
Method: To male rats weighing 220 g, fasted for 24 hours, 0.1 ml of 1% carrageenin suspension was injected into the plantar surface of a hind paw.
The control group, consisting of 25 animals, was administered with the only carrageenin, two other groups, consisting each of 25 animals, were topically administered with Coenzyme Q10 in form of two different formulations, in peanut oil and olive oil respectively, before the carrageenin injection. The results were expressed by means of a plethysmograph, which measured the size of the oedema 4 hours after the carrageenin injection.

[15] = tested on: dithranol (anthralin) induced inflammatory reaction; experiment: Test of dithranol induced cutaneous inflammation; type: in vivo, male Guinea pig; details: topical 2 mg/cm^2 cutis, both in peanut and soybean oil, 48 hours
Method: Male Guinea pigs, weighing 330 g, were epilated at the back and, 24 hours after that, 20 mg of dithranol (anthralin) was intradermically injected into symmetric areas of the back.
Coenzyme Q10 dissolved in peanut and soybean oil was spread on the backs of the animals under test, at the dosage of 2 mg/cm^2 cutis, whereas the control group of animals was subjected to no treatment.
The treated area was covered with Nescofilm and bound up with Micropore.
48 Hours after the administration of the inflammatory agent, the size of the induced inflammatory area was evaluated.

[16] = cited from earlier work
[17] = in excipients compatible with parenteral administration; cited from earlier work
[18] = oral route; cited from earlier work
[19] = heart, read-out: Mean tissutal concentration
[20] = kidney, read-out: Mean tissutal concentration
[21] = liver, read-out: Mean tissutal concentration
[22] = plasma, read-out: Mean plasmatic concentration
[23] = oral 50-100 mg/dosage (100-200 mg pro die)

COC1=C(OC)C(=O)C(CC=C(C)CCC=C(C)CCC=C(C)CCC=C(C)CCC=C(C)CCC=C(C)CCC=C(C)CCC=C(C)CCC=C(C)CCC=C(C)C)=C(C)C1=O [Coenzyme Q10, 2,3-dimethoxy-5-methyl-6-decaprenyl-benzoquinone]
mortality, toxic effect or intolerance [1]: did not show the appearance of any mortality cases, toxic effect or intolerance | mortality or clear toxicity [2]: neither immediately after the administration nor after 8 days, mortality cases or clear toxicity were noticed | biological parameters versus untreated controls [3]: did not show, in comparison with the untreated control animals, any significative difference in the different biological parameters considered | histological examination of the skin [3]: did not show any pathological change | biological parameters versus untreated controls [4]: did not show, in comparison with the untreated control animals, any significative difference in the different biological parameters considered | histological examination of the skin [4]: did not show any pathological change | alteration or malformation of phoetuses [5]: no alteration or malformation was noticed | time of highest concentrations in cutaneous tissue [6]: from the third to the sixth hour after the administration | Fa at 24 h [7]: 18.5 ± 6.2% | cutaneous concentration (in words) [8]: no appreciable appearance of cutaneous concentration | heart concentration change (in words) [8]: substantial changes occur at the heart level | plasmatic concentration change (in words) [8]: negligeable | concentration at 0.5 h [8, 19]: 7100 ng/g | concentration at 1 h [8, 19]: 12300 ng/g | concentration at 6 h [8, 19]: 14700 ng/g | concentration at 0.5 h [8, 20]: 6500 ng/g | concentration at 1 h [8, 20]: 10100 ng/g | concentration at 6 h [8, 20]: 15600 ng/g | concentration at 0.5 h [8, 21]: 4100 ng/g | concentration at 1 h [8, 21]: 7100 ng/g | concentration at 6 h [8, 21]: 9800 ng/g | concentration at 0.5 h [8, 22]: 170 ng/mL | concentration at 1 h [8, 22]: 190 ng/mL | concentration at 6 h [8, 22]: 2700 ng/mL | cutaneous concentration (in words) [9]: no concentration in the cutis is present at any time | concentration at 0.5 h [9, 19]: 10500 ng/g | concentration at 1 h [9, 19]: 14300 ng/g | concentration at 6 h [9, 19]: 16200 ng/g | concentration at 0.5 h [9, 20]: 9500 ng/g | concentration at 1 h [9, 20]: 11500 ng/g | concentration at 6 h [9, 20]: 10200 ng/g | concentration at 0.5 h [9, 21]: 11700 ng/g | concentration at 1 h [9, 21]: 12600 ng/g | concentration at 6 h [9, 21]: 14400 ng/g | concentration at 0.5 h [9, 22]: 270 ng/mL | concentration at 1 h [9, 22]: 940 ng/mL | concentration at 6 h [9, 22]: 800 ng/mL | concentration at the cutis level (in words) [10]: A good increase | tissular regeneration and healing processes [11]: much faster than in the not treated rabbits | treated animals in which onset of dental caries is prevented [12]: more than 50% | seriousness of the lesions (in words) ([13]; preventive topical application, 1-2 mg/cm^2 of skin): decreased in fact the seriousness of the lesions | protective effect on experimental burn (in words) ([13]; topical route): protective effect | reduction of the seriousness of the burn (Blue Evans) ([13]; treated daily, 1-2 mg/cm^2 of skin, 4 consecutive days preceding burn induction): more than 50% | seriousness of the burn versus control rats (Blue Evans) ([13]; treated only once half an hour before burn induction): not significantly different | carrageenin oedema inhibition (in words) [14]: partially inhibited | decrease of inflammatory areas with respect to non-treated animals [15]: 50% | clinical results (in words) [16, 23]: satisfactory clinical results | side-effects (in words) [16, 23]: increases, sometimes intolerably, the side-effects of the drug | change in Coenzyme Q10 in peripheral tissues (in words) ([16]; oral administration of high doses): no changes in Coenzyme Q10 are detectable | solubility (in words) [17]: very low solubility | LD50 [18]: higher than 4 g/kg
